According to paper PMC4503722, “Novel Phenotypic Outcomes Identified for a Public Collection of Approved Drugs from a Publicly Accessible Panel of Assays” (PLoS ONE, 2015):
Where two headings read alike, the source gives them in different places.

Legend:
[1] = biological target: T1, hJAK2 (Homo sapiens, UniProt O60674); assay: Cerep LANCE kinase assay hJAK2 (S1 assay 33); assay type: biochemical
T1 construct: purchased Cerep (LANCE kinase assay platform, contract assay)

[2] = system: DLD-1; assay: cells; assay type: cell-based; details: Homo sapiens
[3] = system: endothelial tube formation in co-cultures of ECFCs and ADSCs treated with VEGF; assay: cells; assay type: cell-based, human; details: Homo sapiens
[4] = system: HT-29; assay: cells; assay type: cell-based; details: Homo sapiens
[5] = biological target: T2, hFLT3 (Homo sapiens, UniProt P36888); assay: Cerep LANCE kinase assay hFLT3 (S1 assay 35); assay type: biochemical
T2 construct: purchased Cerep (LANCE kinase assay platform, contract assay)

[6] = system: INS-1E cells; assay: cells; assay type: cell-based, rat; details: Rattus norvegicus, INS-1E
[7] = system: SNU-C1; assay: cells; assay type: cell-based; details: Homo sapiens
[8] = biological target: T3, hp70S6K1 (RPS6KB1) (Homo sapiens, UniProt P23443); assay: Cerep LANCE kinase assay hp70S6K1 (S1 assay 31); assay type: biochemical
T3 construct: purchased Cerep (LANCE kinase assay platform, contract assay)

[9] = system: HCT116 cells treated with a GSK3β inhibitor; assay: cells; assay type: cell-based; details: Homo sapiens
[10] = system: RKO; assay: cells; assay type: cell-based; details: Homo sapiens, RKO
[11] = system: SW480; assay: cells; assay type: cell-based; details: Homo sapiens
[12] = system: nuclear β-catenin in C2C12 cells; assay: cells; assay type: cell-based; details: Mus musculus
[13] = biological target: T4, hKDR (Homo sapiens, UniProt P35968); assay: Cerep LANCE kinase assay hKDR (S1 assay 32); assay type: biochemical
T4 construct: purchased Cerep (LANCE kinase assay platform, contract assay)

[14] = system: HeLa cells; assay: cells; assay type: cell-based; details: Homo sapiens, HeLa, read-out: CellCycle G2/M
[15] = system: Colo320; assay: cells; assay type: cell-based; details: Homo sapiens
[16] = biological target: T5, hGSK3b (Homo sapiens, UniProt P49841); assay: Cerep LANCE kinase assay hGSK3b (S1 assay 34); assay type: biochemical
T5 construct: purchased Cerep (LANCE kinase assay platform, contract assay)

[17] = system: NCI-H716 cells; assay: cells; assay type: cell-based, Human; details: Homo sapiens
[18] = system: HCT116; assay: cells; assay type: cell-based; details: Homo sapiens
[19] = DLD-1, 72 h, read-out: DLD-1 viab. IC50
[20] = DLD-1, read-out: Basal_Viability ATP DLD-1
[21] = HT-29, 72 h, read-out: HT-29 viab. IC50
[22] = HT-29, read-out: Basal_Viability ATP HT-29
[23] = SNU-C1, 72 h, read-out: SNU-C1 viab. IC50
[24] = SNU-C1, read-out: Basal_Viability ATP SNU-C1
[25] = HCT-116, 72 h, read-out: HCT-116 (GSK3β) viab. IC50
[26] = HCT-116, read-out: GSK3b inh pretreated_Viability ATP HCT116
[27] = read-out: Basal_Viability ATP RKO
[28] = SW480, 72 h, read-out: SW480 viab. IC50
[29] = SW480, read-out: Basal_Viability ATP SW480
[30] = COLO 320, 72 h, read-out: Colo320 viab. IC50
[31] = COLO 320, read-out: Basal_Viability ATP Colo 320
[32] = NCI-H716, read-out: GLP1 sec. EC50
[33] = HCT-116, 72 h, read-out: HCT-116 viab. IC50
[34] = HCT-116, read-out: Basal_Viability ATP HCT116
[35] = NCI-H716, read-out: GLP 1 Secretion
[36] = kinase assay, read-out: p70S6K1

T3 sequence (P23443 whole entry): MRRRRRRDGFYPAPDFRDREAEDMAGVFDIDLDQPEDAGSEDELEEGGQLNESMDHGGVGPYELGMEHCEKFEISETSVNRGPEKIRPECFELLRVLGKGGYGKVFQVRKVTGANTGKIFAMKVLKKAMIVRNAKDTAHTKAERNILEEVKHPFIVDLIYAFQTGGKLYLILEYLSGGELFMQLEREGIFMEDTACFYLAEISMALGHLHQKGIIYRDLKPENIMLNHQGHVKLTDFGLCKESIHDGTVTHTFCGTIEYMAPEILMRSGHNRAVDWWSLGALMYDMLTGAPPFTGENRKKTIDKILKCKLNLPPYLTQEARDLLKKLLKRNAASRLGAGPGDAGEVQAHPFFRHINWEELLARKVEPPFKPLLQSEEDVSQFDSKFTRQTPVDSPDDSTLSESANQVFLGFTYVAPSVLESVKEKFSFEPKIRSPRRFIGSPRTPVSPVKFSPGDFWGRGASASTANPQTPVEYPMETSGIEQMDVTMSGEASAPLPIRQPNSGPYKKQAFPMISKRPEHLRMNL
T4 sequence (P35968 20-1356): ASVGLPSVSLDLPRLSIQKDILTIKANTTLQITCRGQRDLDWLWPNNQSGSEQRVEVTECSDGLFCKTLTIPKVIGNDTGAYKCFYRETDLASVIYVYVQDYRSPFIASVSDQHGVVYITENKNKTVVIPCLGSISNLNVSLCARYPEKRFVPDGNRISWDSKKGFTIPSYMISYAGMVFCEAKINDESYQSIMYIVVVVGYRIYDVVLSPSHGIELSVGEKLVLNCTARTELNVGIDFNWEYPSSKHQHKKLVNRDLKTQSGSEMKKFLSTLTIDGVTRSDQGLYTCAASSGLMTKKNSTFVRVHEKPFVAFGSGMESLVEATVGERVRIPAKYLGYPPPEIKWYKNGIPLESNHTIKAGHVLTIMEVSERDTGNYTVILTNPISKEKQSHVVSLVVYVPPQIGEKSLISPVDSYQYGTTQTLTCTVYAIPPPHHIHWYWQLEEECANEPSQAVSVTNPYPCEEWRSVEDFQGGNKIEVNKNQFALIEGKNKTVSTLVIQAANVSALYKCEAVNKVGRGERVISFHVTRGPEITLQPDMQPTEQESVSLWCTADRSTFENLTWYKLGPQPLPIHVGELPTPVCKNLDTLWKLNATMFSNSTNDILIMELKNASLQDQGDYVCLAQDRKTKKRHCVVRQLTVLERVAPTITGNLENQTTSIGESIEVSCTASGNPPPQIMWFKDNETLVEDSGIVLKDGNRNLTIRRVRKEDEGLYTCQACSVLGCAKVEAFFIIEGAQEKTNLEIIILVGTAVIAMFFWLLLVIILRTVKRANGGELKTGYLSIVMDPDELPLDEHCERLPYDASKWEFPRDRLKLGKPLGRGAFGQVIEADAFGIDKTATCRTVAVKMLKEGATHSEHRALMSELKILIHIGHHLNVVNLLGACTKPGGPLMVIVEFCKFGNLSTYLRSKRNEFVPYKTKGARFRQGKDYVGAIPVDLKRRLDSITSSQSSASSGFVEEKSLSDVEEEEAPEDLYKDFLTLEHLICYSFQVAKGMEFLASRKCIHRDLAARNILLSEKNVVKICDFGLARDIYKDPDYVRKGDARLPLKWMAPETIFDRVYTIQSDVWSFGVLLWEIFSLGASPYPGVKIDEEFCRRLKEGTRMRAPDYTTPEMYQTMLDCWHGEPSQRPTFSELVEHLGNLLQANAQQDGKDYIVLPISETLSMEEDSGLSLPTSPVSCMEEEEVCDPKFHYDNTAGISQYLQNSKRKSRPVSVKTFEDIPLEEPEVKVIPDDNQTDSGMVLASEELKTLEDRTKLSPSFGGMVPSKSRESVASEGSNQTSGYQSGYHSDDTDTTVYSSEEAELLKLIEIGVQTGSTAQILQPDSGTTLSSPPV
T5 sequence (P49841 whole entry): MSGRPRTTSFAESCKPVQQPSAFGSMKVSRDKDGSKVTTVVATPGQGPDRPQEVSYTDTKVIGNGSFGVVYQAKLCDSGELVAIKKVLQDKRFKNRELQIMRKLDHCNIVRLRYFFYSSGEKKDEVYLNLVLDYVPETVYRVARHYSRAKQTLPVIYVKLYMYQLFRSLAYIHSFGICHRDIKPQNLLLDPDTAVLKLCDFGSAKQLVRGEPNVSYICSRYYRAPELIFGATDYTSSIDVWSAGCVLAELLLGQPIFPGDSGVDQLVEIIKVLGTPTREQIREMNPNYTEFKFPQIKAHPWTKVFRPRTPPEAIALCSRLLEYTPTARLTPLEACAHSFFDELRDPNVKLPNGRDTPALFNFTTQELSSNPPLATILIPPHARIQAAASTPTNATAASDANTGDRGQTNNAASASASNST
T1 sequence (O60674 whole entry): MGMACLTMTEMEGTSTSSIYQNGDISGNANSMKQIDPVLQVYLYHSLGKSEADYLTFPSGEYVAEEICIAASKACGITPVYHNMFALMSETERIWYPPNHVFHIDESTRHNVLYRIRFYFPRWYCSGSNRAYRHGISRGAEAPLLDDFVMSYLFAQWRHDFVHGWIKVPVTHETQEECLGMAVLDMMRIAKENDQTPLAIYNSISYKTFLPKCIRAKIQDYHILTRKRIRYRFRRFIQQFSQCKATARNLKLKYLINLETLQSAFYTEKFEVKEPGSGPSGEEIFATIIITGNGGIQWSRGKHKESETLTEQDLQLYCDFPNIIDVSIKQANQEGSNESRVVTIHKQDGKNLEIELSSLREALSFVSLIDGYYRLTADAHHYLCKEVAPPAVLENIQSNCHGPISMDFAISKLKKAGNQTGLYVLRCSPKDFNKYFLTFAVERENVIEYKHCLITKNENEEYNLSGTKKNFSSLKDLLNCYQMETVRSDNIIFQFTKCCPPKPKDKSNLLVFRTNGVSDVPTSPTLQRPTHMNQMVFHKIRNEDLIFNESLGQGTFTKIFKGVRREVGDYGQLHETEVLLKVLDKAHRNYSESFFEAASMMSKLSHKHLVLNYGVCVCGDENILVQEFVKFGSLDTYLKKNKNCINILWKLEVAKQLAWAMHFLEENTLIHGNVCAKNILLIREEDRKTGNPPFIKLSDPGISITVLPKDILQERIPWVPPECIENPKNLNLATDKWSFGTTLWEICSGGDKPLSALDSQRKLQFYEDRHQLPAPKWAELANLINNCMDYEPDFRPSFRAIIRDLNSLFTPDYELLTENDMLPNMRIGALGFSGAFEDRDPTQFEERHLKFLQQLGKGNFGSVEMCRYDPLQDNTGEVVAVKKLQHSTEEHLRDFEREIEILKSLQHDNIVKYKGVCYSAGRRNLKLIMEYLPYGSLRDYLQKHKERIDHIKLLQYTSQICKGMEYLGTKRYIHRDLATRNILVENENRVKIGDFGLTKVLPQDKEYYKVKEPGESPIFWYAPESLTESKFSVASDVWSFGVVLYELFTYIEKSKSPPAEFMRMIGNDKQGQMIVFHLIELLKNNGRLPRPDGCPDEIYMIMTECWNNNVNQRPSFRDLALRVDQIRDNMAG
T2 sequence (P36888 27-993): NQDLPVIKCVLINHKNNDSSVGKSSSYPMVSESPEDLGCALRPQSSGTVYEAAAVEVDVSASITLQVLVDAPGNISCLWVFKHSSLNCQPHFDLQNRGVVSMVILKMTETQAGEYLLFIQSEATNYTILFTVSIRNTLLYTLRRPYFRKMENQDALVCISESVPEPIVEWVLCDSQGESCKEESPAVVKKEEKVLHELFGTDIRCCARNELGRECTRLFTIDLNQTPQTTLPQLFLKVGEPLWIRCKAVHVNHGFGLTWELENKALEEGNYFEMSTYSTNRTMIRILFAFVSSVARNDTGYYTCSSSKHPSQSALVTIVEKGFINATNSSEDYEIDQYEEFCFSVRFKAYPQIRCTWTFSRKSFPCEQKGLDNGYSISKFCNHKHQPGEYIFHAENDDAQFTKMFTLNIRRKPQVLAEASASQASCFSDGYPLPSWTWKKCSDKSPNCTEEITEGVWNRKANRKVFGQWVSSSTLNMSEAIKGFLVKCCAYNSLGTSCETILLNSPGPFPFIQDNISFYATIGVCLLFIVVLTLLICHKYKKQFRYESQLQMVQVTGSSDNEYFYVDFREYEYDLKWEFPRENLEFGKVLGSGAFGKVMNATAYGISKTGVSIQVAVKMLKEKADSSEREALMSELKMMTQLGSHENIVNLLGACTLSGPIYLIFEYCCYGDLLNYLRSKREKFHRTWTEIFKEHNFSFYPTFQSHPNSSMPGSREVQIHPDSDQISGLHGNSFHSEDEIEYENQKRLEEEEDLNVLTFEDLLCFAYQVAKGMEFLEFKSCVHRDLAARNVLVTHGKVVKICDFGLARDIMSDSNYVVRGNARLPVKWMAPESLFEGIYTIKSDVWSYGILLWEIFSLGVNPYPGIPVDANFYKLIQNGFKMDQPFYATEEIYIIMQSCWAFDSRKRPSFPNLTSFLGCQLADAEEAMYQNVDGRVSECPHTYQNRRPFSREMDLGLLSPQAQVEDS

Row | SMILES | IC50 ([1]; read-out: JAK2) [µM] | IC50 [2, 19] [nM] | IC50 [2, 20] [nM] | IC50 ([3]; read-out: Anti-Angio IC50) [µM] | IC50 ([3]; read-out: Anti-Angiogenesis) [µM] | IC50 [4, 21] [nM] | IC50 [4, 22] [nM] | IC50 ([5]; read-out: FLT3) [µM] | EC50 ([6]; read-out: Ins. sec. EC50) [µM] | IC50 [7, 23] [µM] | IC50 [7, 24] [µM] | IC50 [9, 26] [nM] | IC50 [10, 27] [nM] | IC50 [11, 29] [nM] | EC50 ([12]; C2C12, read-out: Wnt Pathway) [nM] | EC50 [14] [µM] | IC50 [15, 31] [nM] | IC50 [18, 34] [nM] | EC50 ([6]; read-out: Insulin Secretion) [µM] | EC50 [17, 35] [µM] | also measured
1 | COc1cc(NCc2ccc3nc(N)nc(N)c3c2C)cc(OC)c1OC [trimetrexate, reference compound] | > 20 | 200 | 195 | 4.4 | 4.42 | 21 | 21.2 | > 20 | > 10 | 5.1 | 5.13 | 3.92 | 2.72 | 59.1 | 3.3 | > 10 | 386 | 23.1 | – | – | IC50 ([8]; read-out: p70S6K1): > 20 µM; IC50 [9, 25]: 4 nM; IC50 ([10]; 72 h, read-out: RKO viab. IC50): 3 nM; IC50 [11, 28]: 59 nM; EC50 ([12]; C2C12, read-out: Wnt pot. EC50): 3 nM; IC50 ([13]; read-out: KDR): > 20 µM; IC50 [15, 30]: 390 nM; IC50 ([16]; read-out: GSK3b): > 20 µM; EC50 [17, 32]: > 10 µM; IC50 [18, 33]: 23 nM
2 | Cc1nc2ccc(CN(C)c3ccc(C(=O)N[C@@H](CCC(=O)O)C(=O)O)s3)cc2c(=O)[nH]1 [raltitrexed, reference compound] | > 20 | > 20000 | – | 0.35 | 0.354 | > 20000 | – | > 20 | > 10 | > 20 | – | 2.3 | 2.88 | – | 4.2 | > 10 | – | 4.24 | – | – | IC50 ([8]; read-out: p70S6K1): > 20 µM; IC50 [9, 25]: 2 nM; IC50 ([10]; 72 h, read-out: RKO viab. IC50): 3 nM; IC50 [11, 28]: 1 nM; EC50 ([12]; C2C12, read-out: Wnt pot. EC50): 4 nM; IC50 ([13]; read-out: KDR): > 20 µM; IC50 [15, 30]: > 20000 nM; IC50 ([16]; read-out: GSK3b): 3.99 µM; EC50 [17, 32]: > 10 µM; IC50 [18, 33]: 4 nM
3 | Cn1cnc([N+](=O)[O-])c1Sc1ncnc2nc[nH]c12 [Azathioprine] | – | – | 364 | – | > 10 | – | > 20000 | – | – | – | > 20 | 623 | 2660 | 9440 | > 10000 | > 10 | 10300 | 207 | > 10 | > 10 | IC50 [1]: > 20 µM; IC50 [5]: > 20 µM; IC50 [8]: > 20 µM; IC50 [13]: > 20 µM; IC50 [16]: > 20 µM
4 | Sc1ncnc2nc[nH]c12 [Mercaptopurine] | – | – | 260 | – | 0.915 | – | 635 | – | – | – | > 20 | 1420 | 659 | 1040 | > 10000 | > 10 | 1300 | 259 | > 10 | > 10 | IC50 ([1]; kinase assay, read-out: JAK2): > 20 µM; IC50 ([5]; kinase assay, read-out: FLT3): > 20 µM; IC50 [8, 36]: > 20 µM; IC50 ([13]; kinase assay, read-out: KDR): > 20 µM; IC50 ([16]; kinase assay, read-out: GSK3b): > 20 µM
5 | O=c1c(-c2ccccc2)c1-c1ccccc1 [Diphenylcyclopropenone] | – | – | 4210 | – | 3.84 | – | > 20000 | – | – | – | > 20 | 7710 | > 20000 | > 20000 | 3620 | > 10 | 3100 | > 20000 | > 10 | > 10 | IC50 ([1]; kinase assay, read-out: JAK2): > 20 µM; IC50 ([5]; kinase assay, read-out: FLT3): > 20 µM; IC50 [8, 36]: > 20 µM; IC50 ([13]; kinase assay, read-out: KDR): > 20 µM; IC50 ([16]; kinase assay, read-out: GSK3b): > 20 µM
